Measurements taken from US20110028409A1, “DETECTION OF ANTI-RIBOSOMAL P PROTEIN ANTIBODIES BY MEANS OF SYNTHETIC PEPTIDES” (TOSCANA BIOMARKERS S.R.L., priority 2009, published 2011).
Ends that are not written are not given here.

What was measured:
[1] = tested on: anti-ribosomal P protein antibodies (IgG) in serum samples; experiment: Antibody detection by covalent ELISA (peptide covalently linked to plate); format: binding, human; details: for healthy donor positive sera (%): 6 healthy donor sera diluted 1:100; for SLE positive sera (%): 8 SLE sera diluted 1:100; for SLE positive sera (positive/tested): SLE sera diluted 1:100; for healthy donor positive sera (positive/tested): healthy donor sera diluted 1:100
Method: A peptide, prepared as described in example 1, was covalently linked to a 96-wells microtitre plate (carboxy or amine binding plate) using sulfo-N-hydroxysuccinimide and 1-ethyl-3-(3-dimethylaminopropyl)carbodiimide. Peptide coupling took place for 2 h at r.t. The plate was blocked for 1 h with 5% FBS in PBS or with 0.5 M Gly (pH 8). The patients serum samples were diluted 1:100 in FBS buffer and were then loaded onto the plate for 1.5 h at r.t. After plate washings, an anti human-IgG antibody conjugated to the enzyme alkaline phosphatase was added and incubated for 1.5 h at r.t. After washings, the alkaline phosphate substrate p-nitrophenyl phosphate was added to the wells. After the quenching of the enzymatic reaction with 1 M NaOH, the absorbance was evaluated at a wavelength of 405 nm.

[2] = tested on: SLE specific auto-antibodies in patients sera; details: literature; cited from earlier work
[3] = tested on: anti-ribosomal P protein antibodies (IgG) in serum samples; experiment: Antibody detection by ELISA (peptide adsorbed onto microtitre plate); format: binding, human
Method: A peptide, prepared as described in example 1 and diluted in 0.05 M carbonate buffer (pH 9.6) or in PBS buffer (pH 7.4) was adsorbed onto 96-wells microtitre plates for 4 h at r.t. The wells were treated for 1 h at r.t. with FBS (FBS 5% in PBS). The patients serum samples (diluted 1:100) were then loaded onto the plate and allowed to react overnight at +4° C. After plate washing, an anti human-IgG antibody conjugated to the enzyme alkaline phosphatase was added and incubated for 3 h at r.t. After washings, the alkaline phosphate substrate p-nitrophenyl phosphate was added to the wells. After the quenching of the enzymatic reaction with 1 M NaOH, the absorbance was evaluated at a wavelength of 405 nm.
In total, 25 serum samples of patients suffering from SLE and 68 serum of healthy blood donors were tested by this method.

Row | Substance | healthy donor positive sera (%) [1] | SLE positive sera (%) [1] | SLE positive sera (positive/tested) [1] | healthy donor positive sera (positive/tested) [1] | patients sera in which SLE specific auto-antibodies are detected [2] | SLE positive sera (%) ([3]; 25 SLE sera, diluted 1:100, adsorbed peptide) | healthy donor positive sera (%) ([3]; 68 healthy blood donor sera, diluted 1:100, adsorbed peptide) | number of SLE sera negative to peptide 9 in which anti ribosomal antibodies were detected ([3]; SLE serum negative to peptide 9) | number of peptide 9-positive SLE sera showing cross-reactivity with peptide 1 ([3]; among the SLE sera positive to peptide 9) | healthy donor positive sera (positive/tested) ([3]; sera of healthy blood donors, diluted 1:100, adsorbed peptide) | SLE positive sera (positive/tested) ([3]; sera of patients suffering from SLE, diluted 1:100, adsorbed peptide, absorbance 405 nm)
1 | PFWPGLFAKA [Peptide 4] | 0% | 12% | 1/8 | 0/6 |  |  |  |  |  |  | 
2 | NH2-Lys-Lys-Glu-Glu-Lys-Lys-Glu-Glu-Ser-Glu-Glu-Glu-Asp-Glu-Asp-Met-Gly-Phe-Gly-Leu-Phe-Asp-COOH (H-KKEEKKEESEEEDEDMGFGLFD-OH) [Peptide C-22, peptide comprising the last 22 amino acids of ribosomal P proteins] |  |  |  |  | 10-20% |  |  |  |  |  | 
3 | LIKAAGVNVEPFWPGLFAKA [Peptide 1, linear peptide derived from the N-terminal region of human ribosomal P1 protein] | 0% | 50% | 4/8 | 0/6 |  | 32% | 1% | 3 | 4 | 1/68 | 8/25
4 | LIKAAGVNVE [Peptide 2] | 0% | 37% | 3/8 | 0/6 |  |  |  |  |  |  | 
5 | GVNVEPFWPGL [Peptide 3] | 0% | 12% | 1/8 | 0/6 |  |  |  |  |  |  | 
